Laboratory results: patent publication US4416817A, “3-Methoxy-2-oxoazetidine derivatives and their production” (Takeda Chemical Industries, Ltd., priority 1979, dated 1983)

Key:
Assay in all cases: Antimicrobial spectrum, minimum inhibitory concentration
Format in all cases: cell-based
Escherichia coli O-111 = conditions: O111, medium TSA
Text: (§1) TSA = Trypticase soy agar [Baltimore Biologicals
(§2) BTSA = Blood trypticase soy agar

[1] = tested on: Corynebacterium diphtheriae Toronto; conditions: medium B-TSA
Text: as §1, §2

[2] = tested on: Serratia marcescens IFO 12648; conditions: IFO12648, medium TSA
Text: as §1, §2

[3] = tested on: Enterobacter cloacae IFO 12937; conditions: IFO12937, medium TSA
Text: as §1, §2

[4] = tested on: Escherichia coli NIHJ JC-2; conditions: NIHJJC2, medium TSA
Text: as §1, §2

Candida albicans TA = conditions: medium TSA
Text: as §1, §2

[5] = tested on: Pseudomonas morganii IFO 3168; conditions: IFO3168, medium TSA
Text: as §1, §2

[6] = tested on: Pseudomonas aeruginosa U 31; conditions: U31, medium TSA
Text: as §1, §2

Klebsiella pneumoniae DT = conditions: medium TSA
Text: as §1, §2

[7] = tested on: Streptococcus pyogenes E-14; conditions: E14, medium B-TSA (Blood trypticase soy agar)
Text: as §1, §2

[8] = tested on: Streptococcus pyogenes S-8; conditions: S8, medium B-TSA
Text: as §1, §2

[9] = tested on: Staphylococcus aureus FDA209P; conditions: medium TSA (Trypticase soy agar)
Text: as §1, §2

[10] = tested on: Proteus vulgaris IFO 3988; conditions: IFO3988, medium TSA
Text: as §1, §2

[11] = tested on: Proteus mirabilis IFO 3849; conditions: IFO3849, medium TSA
Text: as §1, §2

SMILES: CCN1CCN(C(=O)N[C@@H](C(=O)NC2(OC)CN(S(=O)(=O)O)C2=O)c2ccccc2)C(=O)C1=O (single isomer, unassigned) [Compound, sodium 3-[D(-)-2-(4-ethyl-2,3-dioxo-1-piperazinocarboxamido)phenylacetamido]-3-methoxy-2-oxoazetidine-1-sulfonate]
- MIC (Escherichia coli O-111): 12.5 µg/mL
- MIC [1]: 50 µg/mL
- MIC [2]: 50 µg/mL
- MIC [3]: > 100 µg/mL
- MIC [4]: 50 µg/mL
- MIC (Candida albicans TA): > 100 µg/mL
- MIC [5]: > 100 µg/mL
- MIC [6]: > 100 µg/mL
- MIC (Klebsiella pneumoniae DT): 12.5 µg/mL
- MIC [7]: 50 µg/mL
- MIC [8]: 50 µg/mL
- MIC [9]: 100 µg/mL
- MIC [10]: 12.5 µg/mL
- MIC [11]: 50 µg/mL
